Entries after “also recorded” stand apart in the source; their conditions may differ.
How the values were obtained:
[1] = PET uptake of labelled compounds into the brain of anesthetized rhesus monkeys after intravenous administration; type: in vivo, rhesus monkey; settings: i.v.; for uptake value into the brain: rhesus monkey under anesthesia, whole brain (WB 9), FIG. 1
Description: ACN, ACM, CRN and ACC prepared in Examples 1, 3 and 5 in equal amounts were intravenously administered to rhesus monkeys under anesthesia, respectively, at intervals of two hours, and the uptake value of those labelled compounds into the brain (whole brain: WB 9) and into the temporal muscle (TEM 11) was traced with time by the use of PET. The uptake value was obtained by the following calculation: [formula]

[2] = PET uptake of ACM into the whole brain, normal volunteers versus CFS patients; type: in vivo, human (normal volunteers; settings: i.v., normal n=5, CFS n=6 (FIG. 3: n=5)
Experimental: (§1) ACM synthesized in Example 1 was intravenously administered to normal volunteers (n=5) and CFS patients (n=6), and the ACM uptake values into the whole brain and visual cortex were measured with time by means of PET.

[3] = PET uptake of ACM into the whole brain of a normal volunteer, rest and task condition; type: in vivo, human (normal volunteer); settings: i.v., FIG. 2
Experimental: ACM synthesized in Example 3 was intravenously administered to a normal volunteer, and the uptake value of ACM into the whole brain was measured by use of PET in both the rest condition (WR 9) and task condition (calculation task, memory task: WB9-TASK).

[4] = ACM uptake value in blood plasma (hematocrit tube and imaging plate), normal volunteers versus CFS patients; type: in vivo, human (normal volunteers; settings: normal n=5, CFS n=6, FIG. 6
Experimental: (§2) Blood was sampled from the normal volunteers and the CFS patients and the ACM uptake values in the blood plasma and blood cells thereof was measured by the combined method of hematocrit tube and imaging plate.

[5] = PET uptake of ACM into the visual cortex, normal volunteers versus CFS patients; type: in vivo, human (normal volunteers; settings: i.v.
Experimental: as §1

[6] = ACM uptake into erythrocytes and erythrocyte/blood plasma ratio (hematocrit tube and imaging plate), normal volunteers versus CFS patients; type: in vivo, human (normal volunteers
Experimental: as §2

C[11C](=O)O[C@H](CC(=O)[O-])C[N+](C)(C)C [ACN, Acetyl-L-carnitine with ^11 C-labelled primary carbon atom of acetyl group]
uptake value into the brain [1]: taken up into the brain only slightly

CC(=O)O[C@H](CC(=O)[O-])C[N+](C)(C)[11CH3] [ACC, acetyl-L-carnitine with the same label]
uptake value into the brain [1]: not taken up into the brain almost at all

C[N+](C)([11CH3])C[C@H](O)CC(=O)[O-] [CRN, L-carnitine with the ^11 C-labelled N-methyl carbon atom of carnitine, reference compound]
uptake value into the brain [1]: not taken up into the brain almost at all

C[N+](C)(C)C[C@@H](CC(=O)[O-])OC([11CH3])=O [ACM, Acetyl-L-carnitine with the ^11 C-labelled secondary carbon atom of acetyl group]
increase with time in the ACM uptake value into the whole brain, CFS patients versus normal volunteers [2]: significantly lower than that in the normal volunteers
uptake into the whole brain in the task condition relative to rest ([3]; calculation and memory task versus rest): about twice
uptake into the whole brain with time ([3]; rest condition): taken up with time even during rest condition
uptake value into the brain [1]: excellent
change of brain uptake with time ([1]; rhesus monkey, up to 60 minutes after the administration): almost linearly increased up to 60 minutes after the administration
ACM uptake value in blood plasma, course with time, normal volunteers and CFS patients [4]: almost the same course; also recorded: no difference
difference between CFS patients and normal volunteers in ACM uptake, visual cortex versus whole brain ([5]; FIG. 3 and FIG. 4): particularly observed in the visual cortex than in the whole brain
increase with time in the ACM uptake value into the visual cortex, CFS patients versus normal volunteers ([5]; normal n=5, CFS n=6, FIG. 4): significantly lower than that in the normal volunteers
ratio erythrocyte/blood plasma of ACM uptake value, increase with time, CFS patients ([6]; CFS patients n=2, FIG. 7): inhibited in the CFS patients
ACM uptake value into erythrocyte, CFS patients versus normal volunteers ([6]; inferred from erythrocyte/blood plasma ratio and unchanged plasma uptake): significantly lower than that in the normal volunteers
ratio erythrocyte/blood plasma of ACM uptake value, change with time, normal subjects ([6]; normal subjects n=2, FIG. 7): increased with time in the normal subjects
